Data taken from publication PMC9323974, “Palladium(II) Complexes of Substituted Salicylaldehydes: Synthesis, Characterization and Investigation of Their Biological Profile” (Pharmaceuticals, 2022).
Several values for one entry are separate records, joined by “and”; a condition that tells them apart may be missing. Equal values may be shown once. Read-outs that look alike come from different tables or passages of the source.

How the values were obtained:
[1] = target: T1, HSA (Homo sapiens, UniProt P02768); test: Competitive HSA-fluorescence studies with warfarin and ibuprofen; type: binding
T1 construct: purchased Sigma-Aldrich Co
T1 sequence (P02768 25-609): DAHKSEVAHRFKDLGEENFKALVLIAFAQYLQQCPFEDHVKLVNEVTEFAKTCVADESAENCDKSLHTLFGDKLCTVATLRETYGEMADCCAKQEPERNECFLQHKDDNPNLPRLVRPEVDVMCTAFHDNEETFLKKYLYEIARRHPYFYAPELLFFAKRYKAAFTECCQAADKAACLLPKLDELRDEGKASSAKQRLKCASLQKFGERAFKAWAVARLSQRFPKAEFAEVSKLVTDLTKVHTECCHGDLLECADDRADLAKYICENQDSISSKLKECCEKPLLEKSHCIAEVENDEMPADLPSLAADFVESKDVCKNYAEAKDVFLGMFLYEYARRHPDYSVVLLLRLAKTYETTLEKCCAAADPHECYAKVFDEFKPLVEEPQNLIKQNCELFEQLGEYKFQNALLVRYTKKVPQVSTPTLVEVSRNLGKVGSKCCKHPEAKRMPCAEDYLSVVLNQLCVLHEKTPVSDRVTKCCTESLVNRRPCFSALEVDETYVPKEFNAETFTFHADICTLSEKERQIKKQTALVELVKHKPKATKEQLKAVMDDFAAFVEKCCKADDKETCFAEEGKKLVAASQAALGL

[2] = target: T2, BSA (Bos taurus, UniProt P02769); test: Competitive BSA-fluorescence studies with warfarin and ibuprofen; type: binding, bovine; details: for BSA drug site preference: drug site I (warfarin) vs II (ibuprofen)
T2 construct: purchased Sigma-Aldrich Co
T2 sequence (P02769 25-607): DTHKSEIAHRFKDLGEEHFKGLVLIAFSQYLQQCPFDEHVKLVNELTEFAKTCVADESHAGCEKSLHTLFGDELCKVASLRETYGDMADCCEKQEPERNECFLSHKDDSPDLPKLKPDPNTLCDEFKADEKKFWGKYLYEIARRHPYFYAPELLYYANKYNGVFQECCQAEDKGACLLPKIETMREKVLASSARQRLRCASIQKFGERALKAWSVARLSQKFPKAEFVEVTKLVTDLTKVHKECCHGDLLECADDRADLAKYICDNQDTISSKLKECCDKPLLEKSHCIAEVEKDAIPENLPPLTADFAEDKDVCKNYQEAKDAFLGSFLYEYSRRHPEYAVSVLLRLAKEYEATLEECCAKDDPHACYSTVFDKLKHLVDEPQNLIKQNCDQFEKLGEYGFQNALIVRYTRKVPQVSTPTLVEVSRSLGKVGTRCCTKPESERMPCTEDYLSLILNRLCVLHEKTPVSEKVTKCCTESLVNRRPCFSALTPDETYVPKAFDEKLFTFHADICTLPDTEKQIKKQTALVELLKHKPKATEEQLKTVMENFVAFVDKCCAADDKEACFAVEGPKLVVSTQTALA
Experimental: where n = the number of binding sites per albumin and K = the SA–binding constant. The K constant (M−1) is calculated from the slope in plots (ΔI/I0)/[Q] versus (ΔI/I0) and n is given by the ratio of y intercept to the slope [S9].
S4.2 Competitive SA–fluorescence studies with warfarin and ibuprofen
The competitive studies with warfarin or ibuprofen (site probes) [S10] were performed by tryptophan fluorescence quenching experiments using a fixed concentration of the BSA and site probes (3 μM) in buffer (containing 15 mM trisodium citrate and 150 mM NaCl at pH 7.0). The fluorescence emission spectra were recorded in the presence of increasing amounts of the compounds as quenchers with an excitation wavelength of 295 nm. The Scatchard equation (eq. 7) [S6] and plots were applied on the corrected SA–fluorescence emission spectra in order to determine the BSA–binding constant of the compounds in the presence of warfarin or ibuprofen.

[3] = tested on: S. aureus, B. subtilis, E. coli, X. campestris; test: MIC stated for all tested bacterial strains; type: cell-based; details: all tested microbes
Experimental: S2 Antibacterial activity
The antimicrobial activity of the compounds was evaluated by determining their respective MIC values towards two Gram–(–) (Escherichia coli NCTC 29212 (E. coli) and Xanthomonas campestris ATCC 1395 (X. campestris)) and two Gram–(+) (Staphylococcus aureus ATCC 6538 (S. aureus) and Bacillus subtilis ATCC 6633 (B. subtilis)) bacterial species. Cultures of these microbial strains were grown on a rich selective agar medium and stored at 4°C. The selective media used were Nutrient Agar or Broth for B. subtilis and S. aureus, Yeast Mold Agar or Broth for X. campestris and Luria Agar or Broth for E. coli. Cells picked from the surface of the stored cultures were used to initiate liquid pre–cultures of the same selective medium at an initial turbidity of roughly 1 McFarland unit. Pre–cultures were incubated for 24 h in a rotary shaking incubator and subsequently they were used to inoculate the test cultures used for the determination of MIC at an initial turbidity of 0.5 McFarland units. The test cultures consisted of Mueller –Hinton broth (Deben Diagnostics Ltd) containing different concentrations of the compounds.
Different concentrations were achieved as follows: the compounds were freshly dissolved in DMSO to a concentration of 1 mg mL–1 and they were diluted with DMSO, using the method of progressive double dilution. Therefore, working solutions with decreasing concentrations of the compounds under investigation were achieved. The working solutions were subsequently diluted to the final desired concentration by addition to the growth medium at a proportion of 2:98. MIC values were determined as the lowest concentrations of the tested compounds that inhibited visible growth of each respective organism after a 24 h incubation [ S3]. Bacterial growth was determined by measuring the turbidity of appropriately diluted cultures at 600 nm with reference to equally diluted sterile growth medium and the inhibition achieved was calculated by comparing the turbidity of each culture to the average of the turbidity of three non–inhibited cultures. All test cultures were grown in triplicates and for the determination of MIC, growth had to be inhibited in at least two cultures of the triplicate. Incubation temperature at all stages was 37°C except for X. campestris that was cultivated at 28°C [S4].

[4] = ABTS radical cation scavenging; details: compound 0.1 mM
Experimental: S1 Antioxidant biological assay
The antioxidant activity of the compounds was evaluated via their ability to scavenge in […]
vitro free radicals such as DPPH and ABTS and to reduce H2O2. […]
S1.2 Assay of radical cation ABTS–scavenging activity
The ABTS assay was performed to determine the activity of the compounds to scavenge the […]
radical cation ABTS. Initially, a water solution of ABTS was prepared (2 mM). ABTS radical cation […]
(ABTS+·) was produced by the reaction of ABTS stock solution with potassium persulfate (0.17 […]
mM) and the mixture was stored in the dark at room temperature for 12–16 h before its use. The […]
ABTS was oxidized incompletely because the stoichiometric reaction ratio of ABTS and potassium […]
persulfate is 1:0.5. The absorbance became maximal and stable only after more than 6 h of reaction […]
although the oxidation of the ABTS started immediately. The radical was stable in this form for […]
more than 2 days when allowed to stand in the dark at room temperature. Afterwards, the ABTS+· […]
solution was diluted in ethanol to an absorbance of 0.70 at 734 nm and 10 μL of diluted compounds or standards (0.1 mM) in DMSO were added. The absorbance was recorded out exactly 1 min after […]
initial mixing [S1]. The ABTS radical scavenging activity was expressed as the percentage inhibition of the absorbance of the initial ABTS solution (ABTS%). […]

[5] = tested on: EB-DNA adduct (CT DNA); details: cited from earlier work
[6] = target: CT DNA; details: cited from earlier work
[7] = target: T2, BSA; details: cited from earlier work
[8] = read-out: HSA-binding constant K, Marker: Ibuprofen, ibuprofen
[9] = read-out: HSA-binding constant K, Marker: Warfarin, warfarin
[10] = read-out: BSA-binding constant K, Marker: Ibuprofen, ibuprofen 3 μM
[11] = read-out: BSA-binding constant K, Marker: Warfarin, warfarin 3 μM

Row | Compound | Kd [1] | Kd [1, 8] | Kd [1, 9] | Kd [2] | Kd [2, 10] | Kd [2, 11] | ABTS% [4] | HSA-binding constant K, Marker: Ibuprofen ([1]; ibuprofen) | HSA-binding constant K, No Marker [1] | HSA-binding constant K, Marker: Warfarin ([1]; warfarin) | BSA-binding constant K, Marker: Ibuprofen ([2]; ibuprofen 3 μM) | BSA-binding constant K, No Marker [2] | BSA-binding constant K, Marker: Warfarin ([2]; warfarin 3 μM) | also measured
1 | CCN(CC)c1ccc(C=O)c(O)c1 [4-Et2N-saloH, 4-diethylamino-salicylaldehyde, reference compound] | 2.48 µM | 23.8 µM | 4.39 µM | 2.4 µM | 20.6 µM | 7.52 µM | 25.84 ± 0.34% | – | – | – | – | – | – | MIC ([3]; read-out: MIC): > 200 µg/mL
2 | COc1ccc(C=O)c(O)c1 [4-OMe-saloH, 4-methoxy-salicylaldehyde, reference compound] | 10.3 µM | 21.3 µM | 60.2 µM | 2.43 µM | 12.7 µM | 68.5 µM | 40.83 ± 0.44% | – | – | – | – | – | – | KSV (Stern–Volmer constant), EB-DNA [5]: 5.19 (±0.17) × 10^4 M^−1; kq (EB-DNA quenching constant) [5]: 2.26 (±0.07) × 10^12 M^−1s^−1; ΔΙ/Ι0 (%) EB-DNA fluorescence quenching [5]: 62.5%; Kb (DNA-binding constant) [6]: 9.25 (±0.12) × 10^5 M^−1; K BSA-binding constant [7]: 4.11 (±0.23) × 10^5 M^−1; kq BSA-quenching constant [7]: 1.16 (±0.14) × 10^13 M^−1 s^−1; MIC ([3]; read-out: MIC): > 200 µg/mL
3 | O=Cc1cc(F)ccc1O [5-F-saloH, 5-fluoro-salicylaldehyde, reference compound] | 21.5 µM | 16.1 µM | 33.1 µM | 23.2 µM | 21.7 µM | 33.1 µM | 19.57 ± 0.58% | – | – | – | – | – | – | –
4 | CCN(CC)c1ccc(C=O)c([O][Pd][O]c2cc(N(CC)CC)ccc2C=O)c1 [Complex 1, [Pd(4-Et2N-salo)2]] | – | – | – | – | – | – | 97.05 ± 0.48% | 1.86 (±0.12) × 10^5 M^−1 | 1.25 (±0.06) × 10^5 M^−1 | 6.89 (±0.28) × 10^4 M^−1 | 8.94 (±0.63) × 10^4 M^−1 | 1.08 (±0.06) × 10^5 M^−1 | 9.34 (±0.60) × 10^4 M^−1 | –
5 | O=Cc1cc(Br)cc(Br)c1[O][Pd][O]c1c(Br)cc(Br)cc1C=O [Complex 2, [Pd(3,5-diBr-salo)2]] | – | – | – | – | – | – | 50.46 ± 0.91% | 3.23 (±0.13) × 10^5 M^−1 | 4.12 (±0.15) × 10^5 M^−1 | 1.43 (±0.09) × 10^5 M^−1 | 1.05 (±0.09) × 10^5 M^−1 | 1.50 (±0.06) × 10^6 M^−1 | 9.64 (±0.70) × 10^4 M^−1 | MIC [3]: 25 μg/mL and 38 μM
6 | O=Cc1cc(Cl)cc(Cl)c1[O-].O=Cc1cc(Cl)cc(Cl)c1[O-].[Pd+2] [Complex 3, [Pd(3,5-diCl-salo)2]] | – | – | – | – | – | – | 63.45 ± 0.38% | 3.78 (±0.14) × 10^5 M^−1 | 4.10 (±0.17) × 10^5 M^−1 | 2.47 (±0.09) × 10^5 M^−1 | 2.89 (±0.10) × 10^5 M^−1 | 7.82 (±0.24) × 10^5 M^−1 | 3.26 (±0.34) × 10^5 M^−1 | –
7 | O=Cc1cc(F)ccc1[O-].O=Cc1cc(F)ccc1[O-].[Pd+2] [Complex 4, [Pd(5-F-salo)2]] | – | – | – | – | – | – | 63.30 ± 0.53% | 1.10 (±0.08) × 10^5 M^−1 | 1.38 (±0.05) × 10^5 M^−1 | 8.98 (±0.82) × 10^4 M^−1 | 9.27 (±0.48) × 10^4 M^−1 | 8.79 (±0.13) × 10^4 M^−1 | 6.05 (±0.27) × 10^4 M^−1 | BSA drug site preference [2]: drug site I
8 | COc1ccc(C=O)c([O-])c1.COc1ccc(C=O)c([O-])c1.[Pd+2] [Complex 5, [Pd(4-OMe-salo)2]] | – | – | – | – | – | – | 96.66 ± 0.46% | 1.45 (±0.17) × 10^4 M^−1 | 3.56 (±0.12) × 10^5 M^−1 | 1.00 (±0.18) × 10^5 M^−1 | 6.52 (±0.46) × 10^4 M^−1 | 9.18 (±0.27) × 10^5 M^−1 | 1.46 (±0.14) × 10^5 M^−1 | HSA drug site preference ([1]; drug site I (warfarin) vs II (ibuprofen)): did not seem to show firmly a selectivity; BSA drug site preference [2]: drug site II
